In patent US8637556B2, “Linked Myc-max small molecule inhibitors” (University of Pittsburgh—Of the Commonwealth System of …, priority 2009, dated 2014):
Like-named read-outs stand apart in the source and are kept apart here.

Assays:
[1] = system: Daudi Burkitt lymphoma cells; experiment: Burkitt's lymphoma cell growth inhibition (MTT assay); format: cell-based; details: Homo sapiens
Procedure: (§1) These assays were performed as previously described using HL60 promyelocytic leukemia cells and Daudi Burkitt lymphoma cells, each of which expresses high levels of endogenous c-Myc (Wang, H. et al. Mol. Cancer Ther. 6, 2399-408 (2007)). As controls for non-specific effects of bivalent compounds, we utilized a c-Myc nulllizygous strain of rat fibroblasts (Mateyak, M. K., et al. Cell Growth & Differentiation 8, 1039-48 (1997)) expressing the c-Myc target genes MT-MC1 and HMGAIb, each of which restores a normal growth rate as well as the TGR1 fibroblast line from which the nullizygous line was derived (Wang, H. et al. Mol. Cancer Ther. 6, 2399-408 (2007); Mateyak, M. K., et al. Cell Growth & Differentiation 8, 1039-48 (1997); and Rothermund, K. et al. Cancer Research 65, 2097-107 (2005)). […] Cell quantification was performed on triplicate wells over the ensuing 4-5 days without changing the medium by measuring the absorbance at 490 nm using the MTT assay (Mosmann, T. Journal of Immunological Methods 65, 55-63 (1983)). IC50 values were estimated from linear regression of the inhibition data at the third day of each experiment.
(§2) We evaluated the efficacy of the linked compounds 11, 12, 13, 16, 17, 18 in inhibiting the c-Myc-Max interaction by measuring the binding of a target DNA sequence (E-Box) by the protein heterodimers in an electrophoretic mobility shift assay (EMSA). […] A fluorinated substitute of 14, 24, the choice of which was based upon the results of structure activity relationship studies described in Wang, H. et al. (Mol. Cancer Ther. 6, 2399-408 (2007)), was employed at this purpose (Muller, K., et al. Science 317, 1881-6 (2007) and Kirk, K. L. Current Topics in Medicinal Chemistry 6, 1447-56 (2006)).

[2] = target: T1, c-Myc353-437 (monomeric c-Myc bHLH-ZIP) (Homo sapiens, UniProt P01106); experiment: Fluorescence polarization titration, c-Myc bHLH-ZIP binding; details: Table 1; FP of nitrobenzofurazan moiety, c-Myc353-437; read-out: KD (c-Myc affinity, bivalent)
T1 construct: recombinant monomeric c Myc bHLH-ZIP (amino acids 353-437); 6xHis with TEV site (N, cleaved yes); made in house; host or cells: E. coli BL21DE3(pLysS)
Excerpt: A c-Myc353-437 full-length bHLH-ZIP domain and its truncated version c-Myc390-439 were produced from the c-Myc/pET SKB3 construct, kindly supplied by Dr. S. K. Nair (University of Illinois, Urbana-Champaign), by insertion into the pET151D vector, encoding an N-terminal hexahistidine (6× His), separated by a TEV protease digestion site, with the TOPO® ligation system, and over-expressed in E. coli BL21DE3(pLysS). The 6× His tagged human Max isoform p21, with low homodimerization affinity^70, cloned into the pQE10 vector (Qiagen, Inc.), was over-expressed in E. coli M15(pRep4). Bacterial cultures were grown at 37° C. in LB medium to OD600≈0.8, then induced with 0.5 mM IPTG for 5 hours. Proteins were purified by Ni-agarose chromatography with a pH gradient elution. The 6× His tag of c-MYC353-437 and c-Myc390-439 was cleaved using TEV protease (the TEV protease was expressed in a pET24 vector [courtesy of S. K. Nair] and purified by Ni-agarose chromatography under native conditions). All the proteins were further purified by HPLC and lyophilized. Protein concentrations were determined by measurement of OD280. The synthetic peptide c-Myc363-381 is described in Follis, A. V., Hammoudeh, D. I., Wang, H., Prochownik, E & Metallo, S. J. Structural rationale for the coupled binding and unfolding of the c-Myc oncoprotein by small molecules. Chemistry & Biology 15, 1149-1155 (2008).
Samples were analyzed in a Photon Technology International QuantaMaster fluorimeter (Birmingham, N.J.) equipped with polymer sheet polarizers. Titration experiments were performed upon serial dilution of 1:1 equimolar solution of inhibitor and either c-Myc353-437, c-Myc390-439 or c-Myc363-381 in a 1×PBS buffer (137 mM NaCl, 2.7 mM KCl, 4.3 mM Na2HPO4, 1.4 mM KH2PO4, pH=7.4), 5% DMSO, over concentrations ranging between 200 μM and 1.5 nM. Excitation and emission wavelengths were independently determined for each inhibitor. Reported data represent the average of at least three independent experiments. Data were fit to a quadratic equation derived from the thermodynamic expression of binding equilibrium:
[formula] where [C]0 represents the total concentration of inhibitor and of c-Myc peptide. The value of KD was determined from the experimental polarization data by fitting to Eq. 2 using KaleidaGraph (Synergy Software, Reading, Pa.) where pol0 is the polarization in the absence of binding and Δpol is the total change in polarization (Park, S. H. & Raines, R. T. Fluorescence polarization assay to quantify protein-protein interactions. Methods in Molecular Biology 261, 161-6 (2004)).
[formula] Due to the very tight binding of some of the tested compounds, it was impossible to perform a full binding titration with an acceptable fluorescence intensity, therefore the polo parameter was experimentally determined from samples of each compound in the absence of c-Myc353-437 at a concentration of 25 μM. Binding specificity experiments were performed by monitoring the FP of 10 μM inhibitors solutions in the above-described buffer in the presence of equimolar p21 Max. […] Circular Dichroism.
Also in this case the c-Myc binding affinity was little affected by the introduction of the linker chain (Table 1, FIG. 11).
We then measured the affinity of the synthesized bivalent inhibitors, by monitoring the FP of the compounds nitrobenzofurazan moiety. […] The estimated free energy of binding of the bivalent compounds was roughly proportional to the sum of those of their monovalent components. In the thermodynamic analysis of multivalent binding a ΔG^s term is used to relate the free energy of binding of a multivalent compound to the sum of those of its monovalent components. This term implies the diverse energy contributions resulting from the linking of independent binding components. The ΔG^s term generally constitutes a negative contribution to the binding affinity of distinct binding components connected by a flexible linker to a given target.

[3] = system: HL60 promyelocytic leukemia cells; experiment: HL60 cell growth inhibition (MTT assay); format: cell-based; details: Homo sapiens, HL-60
Procedure: as §1, §2

[4] = Table 3, MTT, third day, read-out: Growth inhibition BL
[5] = Table 3, MTT, third day, read-out: Growth inhibition HL60

T1 sequence (P01106 368-452): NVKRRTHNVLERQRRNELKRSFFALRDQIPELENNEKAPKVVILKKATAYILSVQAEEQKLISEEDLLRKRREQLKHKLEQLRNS

| Structure (SMILES) | IC50 [1, 4] [nM] | Kd [2] [nM] | IC50 [3, 5] [nM] | IC50 ([1]; BL cells, read-out: IC50) [nM] | IC50 ([3]; HL60 cells, read-out: IC50) [nM] |
| --- | --- | --- | --- | --- | --- |
| O=C1NC(=S)S/C1=C\c1ccc(C(=O)NCCCCCNC(=O)c2cccc(Nc3ccc([N+](=O)[O-])c4nonc34)c2)cc1 [compound 12, N-[5-({3-[(7-nitro-2,1,3-benzoxadiazol-4-yl)amino]phenyl}formamido)pentyl]-4-{[(5Z)-4-oxo-2-sulfanylidene-1,3-thiazolidin-5-ylidene]methyl}benzamide] | 20000 to 35000 | 400 ± 100 | > 30000 |  |  |
| O=C1NC(=S)SC1=Cc1ccc(C(=O)NCCCCCNC(=O)c2ccc(Nc3ccc([N+](=O)[O-])c4nonc34)cc2)cc1 [compound 13] | 5000 to 10000 | 4.7 ± 0.8 | 6000 |  |  |
| CCc1ccc(/C=C2\SC(=O)N(CCCCCCNC(=O)c3ccccc3Nc3ccc([N+](=O)[O-])c4nonc34)C2=O)cc1 [compound 16, N-{6-[(5Z)-5-[(4-ethylphenyl)methylidene]-2,4-dioxo-1,3-thiazolidin-3-yl]hexyl}-2-[(7-nitro-2,1,3-benzoxadiazol-4-yl)amino]benzamide amine] | 700 to 900 | 2.2 ± 0.2 | 500 to 700 | 500 to 1000 | 500 to 1000 |
| CCc1ccc(C=C2SC(=O)N(CCCCCCNC(=O)c3cccc(Nc4ccc([N+](=O)[O-])c5nonc45)c3)C2=O)cc1 [compound 17] | > 10000 | 110 ± 20 | > 30000 |  |  |
